From patent publication US20060264439A1, “Inhibitors of polo-like kinase-1” (SuperGen, Inc., priority 2005, published 2006)

Target: T1, Plk-1 (Homo sapiens, UniProt P53350)
T1 construct: purchased Cyclex
Assay: ELISA-based Polo-like Kinase-1 activity assay (Cyclex)
Type: biochemical
Conditions: compound at 10 uM, 10 mU purified Plk-1, 50 uM ATP, 30 minutes at 30° C.
Method: An ELISA-based Polo-like Kinase-1 activity assay (Cyclex, Nagano Japan) was used to confirm the Plk-1 inhibitory activity of the illustrative compound of the invention having the structure shown below. [drawing 39]
Briefly, 10 mU of purified Plk-1 (Cyclex) was incubated with the compound of interest in triplicate wells of a substrate-coated 96-well plate, along with 50 uM ATP and kinase buffer, for 30 minutes at 30° C. Wells were washed and probed with the anti-phospho-threonine antibody, incubated for 30 minutes at room temperature, then washed and probed again with an HRP-Anti Rabbit IgG. HRP substrate was added and the extent of phosphorylation was measured using a dual-wavelength spectrophotometer. At a concentration of 10 uM, compound (IB-10) inhibited Plk-1 activity in this assay by greater than 60%.
An ELISA-based Polo-like Kinase-1 activity assay (Cyclex, Nagano Japan) was used to confirm the Plk-1 inhibitory activity of the illustrative compound of the invention having the structure shown below (Compound 18, Table 1). [drawing 40]
Briefly, 10 mU of purified Plk-1 (Cyclex) was incubated with the compound in triplicate wells of a substrate-coated 96-well plate, along with 50 uM ATP and kinase buffer, for 30 minutes at 30° C. […] HRP substrate was added and the extent of phosphorylation was measured using a dual-wavelength spectrophotometer.

T1 sequence (P53350 whole entry): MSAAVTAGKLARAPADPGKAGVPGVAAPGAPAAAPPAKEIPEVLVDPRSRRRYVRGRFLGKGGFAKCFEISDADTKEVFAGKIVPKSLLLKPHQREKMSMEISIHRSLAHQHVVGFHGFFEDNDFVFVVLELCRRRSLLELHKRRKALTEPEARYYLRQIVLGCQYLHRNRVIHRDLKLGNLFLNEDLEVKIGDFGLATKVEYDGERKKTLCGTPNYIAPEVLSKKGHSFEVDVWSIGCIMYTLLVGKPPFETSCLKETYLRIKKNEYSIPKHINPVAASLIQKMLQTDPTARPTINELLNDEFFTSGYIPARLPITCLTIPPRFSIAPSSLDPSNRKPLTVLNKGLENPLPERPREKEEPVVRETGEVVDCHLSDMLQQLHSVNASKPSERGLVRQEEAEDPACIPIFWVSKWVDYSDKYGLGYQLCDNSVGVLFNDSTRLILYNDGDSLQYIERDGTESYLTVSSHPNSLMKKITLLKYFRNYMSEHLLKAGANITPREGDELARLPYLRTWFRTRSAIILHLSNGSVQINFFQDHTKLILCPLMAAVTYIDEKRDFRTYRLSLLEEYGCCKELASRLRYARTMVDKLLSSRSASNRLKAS

Row | Plk-1 activity reduced to % of untreated controls (remaining activity) [%] | inhibition at 10 µM (read-out: inhibited Plk-1 activity) [%] | Structure (SMILES)
1 | 88 |  | COc1cc2nncc(Nc3ccc(S(=O)(=O)NC(C)=O)cc3)c2cc1OC [Compound 18, N-Acetyl-4-(6,7-dimethoxy-cinnolin-4-ylamino)-benzenesulfonamide]
2 |  | > 60 | NC(=O)c1nnc2cc(Cl)c(F)cc2c1/N=C/c1ccc([N+](=O)[O-])cc1 [IB-10, (E)-4-(4-nitrobenzylideneamino)-7-chloro-6-fluorocinnoline-3-carboxamide]
